ChEMBL document CHEMBL3886143, “(Hetero)aryl cyclopropylamine compounds as LSD1 inhibitors” (2016)

Target: T1, Amine oxidase [flavin-containing] A (Homo sapiens, UniProt P21397)
T1 sequence (P21397 whole entry): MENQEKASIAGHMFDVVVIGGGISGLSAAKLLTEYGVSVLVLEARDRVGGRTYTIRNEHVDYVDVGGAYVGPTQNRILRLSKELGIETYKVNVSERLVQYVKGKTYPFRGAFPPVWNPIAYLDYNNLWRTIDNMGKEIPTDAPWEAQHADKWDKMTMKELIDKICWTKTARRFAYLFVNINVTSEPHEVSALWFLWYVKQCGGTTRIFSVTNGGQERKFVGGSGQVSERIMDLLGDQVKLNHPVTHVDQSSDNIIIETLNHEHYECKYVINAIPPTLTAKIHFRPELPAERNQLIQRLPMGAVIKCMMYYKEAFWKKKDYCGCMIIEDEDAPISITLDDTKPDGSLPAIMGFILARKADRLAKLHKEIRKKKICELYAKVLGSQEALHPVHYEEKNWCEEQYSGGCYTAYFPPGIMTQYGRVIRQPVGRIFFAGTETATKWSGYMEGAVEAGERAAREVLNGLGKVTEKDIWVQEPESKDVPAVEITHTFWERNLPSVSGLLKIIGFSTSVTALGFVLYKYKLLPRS
Assay: Fluorescence-Based (Inhibitor)-Screening Assay: In order to monitor MAO enzymatic activities and/or their inhibition rate by inhibitor(s) of interest, a fluorescence-based (inhibitor)-screening assay was set up. 3-(2-Aminophenyl)-3-oxopropanamine (kynuramine dihydrobromide, Sigma Aldrich), a non fluorescent compound was chosen as a substrate. Kynuramine is a non-specific substrate for both MAO-A and MAO-B activities. While undergoing oxidative deamination by MAO activities, kynuramine is converted into 4-hydroxyquinoline (4-HQ), a resulting fluorescent product.The monoamine oxidase activity was estimated by measuring the conversion of kynuramine into 4-hydroxyquinoline. Assays were conducted in 96-well black plates with clear bottom (Corning) in a final volume of 100 uL. The assay buffer was 100 mM HEPES, pH 7.5. […] Clorgyline and Deprenyl (Sigma Aldrich) was used as a control for specific inhibition of MAO-A and MAO-B respectively. After leaving the enzyme(s) interacting with the inhibitor, KM of kynuramine was added to each reaction for MAO-B and MAO-A assay respectively, and the reaction was left for 1 hour at 37° C. in the dark. The oxidative deamination of the substrate was stopped by adding 50 uL of NaOH 2N. […] The IC50 values of each inhibitor were calculated with GraphPad Prism Software.

N[C@H]1CC[C@H](N[C@@H]2C[C@H]2c2ccccc2)CC1
Ki: > 40 µM
